# Measured values as given in patent US20050176811A1, “Vitamin combination for providing protection during the chemotherapy and/or radio-therapy of malignant tumours” (priority 2002, published 2005).
# Experiments:
# [1] = tested on: sarcoma 45; details: rat, in vivo
# [2] = tested on: white raceless male and female rats; assay: Whole body gamma irradiation of rats at 11.4 Gy, comparison with mexamine; assay type: in vivo; details: radiation dose 11.4 Gy, agent 24 h before irradiation
# Protocol: In order to compare the radiation protection according to the invention with the effect of conventional radiation protective agents white raceless male and female rats weighing from 150 to 180 g (age: 3 months) was subjected to whole body gamma irradiation at a dose of 11.4 Gy, the animals being protected according to the invention by administering the vitamin combination at the above-mentioned dose 24 hours before the irradiation (group I). […] A third group of rats was irradiation without administering a radiation protective agent (group III).
# [3] = tested on: stomach cancer at stage IV; design: concentration or dose not given beside the values; details: only 5-Fu, control group from older literature; cited from earlier work
compound,measurement,setting,value
tocopherol [vitamin E],distribution of vitamin E (tocopherol contents in organs),[1],accumulation of this vitamin in the tumour
COc1ccc2[nH]cc(CCN)c2c1 [mexamine],average life-span,[2],8.2 ± 4 days
same,days at which 50% of animals are dead,[2],50/8 days
same,days at which 100% of animals are dead,[2],100/13 days
"O=c1[nH]cc(F)c(=O)[nH]1 [5-Fu, 5-Fluorouracil]",survival rate (%) after 3 months,[3],86.7%
same,survival rate (%) after 6 months,[3],66.7%
same,survival rate (%) after 9 months,[3],40.0%
same,survival rate (%) after 12 months,[3],20.0%
same,survival rate (%) after 18 months,[3],13.7%
same,survival rate (%) after 22 months,[3],0%
